From article PMC11836371, “Virtual fragment screening for DNA repair inhibitors in vast chemical space” (Nature Communications, 2025)
Values joined by “and” are separate entries in the source; they are usually repeats but may differ in a detail not shown here. Equal values may be shown once. Read-outs that look alike come from different tables or passages of the source.

Experiments:
[1] = target: T1, human OGG1 enzyme (Homo sapiens, UniProt O15527); test: Differential scanning fluorimetry (DSF) thermal shift assay; assay type: binding; parameters: ∆Tm (K): unit of the concentration uncertain; settings: for ΔTm: concentration not given
Description: The temperature was increased from 20 °C to 85 °C with 10 readings/degree. Tm values were calculated using an excel template and fitting to the Boltzmann equation in Prism v.6.07 (GraphPad Software).

[2] = target: T1, human OGG1 enzyme; test: OGG1 glycosylase activity assay (enzyme inhibition, APE1-coupled fluorescence); assay type: biochemical
Description: “8” signifies 8-oxoA and “FAM” and “Dab” signify fluorescein and dabcyl (TriLink Biotech). Briefly, compounds dissolved in DMSO were dispensed using an Echo 550 (Labcyte), followed by transfer of enzyme and substrate solutions manually with a 16-channel pipette or with a Multidrop (Thermo Scientific). The plates were centrifuged, sealed and incubated at room temperature overnight (15 h) and read the following morning in an Hidex Sense plate reader (Hidex Oy) using a 485-nm filter with a bandwidth of 10 nm for excitation and a 535-nm filter with a bandwidth of 20 nm for emission.

[3] = tested on: NF-κB activation in HEK293T pGF NF-κB cells; test: TNF-α induced NF-κB activation assay; assay type: cell-based; settings: Homo sapiens, HEK-293T; NFκB activation assay; ± SD; read-out: pEC50 (converted)
Description: The inhibition of TNF-α induced NF-κB activation was measured in HEK293T cells transfected with the pGreenfire NF-κB plasmid. This is a plasmid that has NF-κB response elements (TRE) coupled to GFP and luciferase expression. When the NF-κB is activated by TNF-α, it binds to the TRE and induces GFP expression, and the fluorescence can be measured in a plate reader. The cells were authenticated with STR profiling, frozen down and these stocks were used in experiments. The HEK293T pGF NF-κB cells were kept in DMEM with 5% FBS and 1% P/S but, when seeded for the assay the medium was changed to DMEM FluoroBrite with 1% dialyzed FBS. All cell culture reagents were purchased from Thermo Fisher Scientific. Compounds were nano-dispensed (Echo acoustic dispenser) in 96-well, black/clear, assay plates (Corning #3904), duplicate plates, in 8-points dose-response curves, 1:2 dilutions, with DMSO compensation (0.3% DMSO). Cells were seeded at 30000 cells/well in medium containing 10 ng/mL of TNF-α (Sigma-Aldrich), except negative control wells which only contained cells in medium. Cells were cultured for 24 hours in a humidified incubator at 37 °C with 5% CO2 after which the GFP fluorescence was measured in a Sense plate reader (Hidex) with ex485/em535. The RFU data from the duplicate plates were combined to calculate % inhibition of NF-κB activation and IC50-values were calculated using XLfit (IDBS). In parallel with the NF-κB assay, a CellTiterGlo (Promega) cell viability assay was run to exclude compounds affecting cell viability. Compounds were nano-dispensed (Echo acoustic dispenser) in assay plates in 11-points dose-response curves, 1:3 dilutions, without DMSO compensation, with duplicates on the same plate. Cells were seeded at 7500 cells/well in 25 µL medium (DMEM FluoroBrite with 1% dialyzed FBS) containing 10 ng/mL TNF-α and cultured for 24 hours, with column 24 containing only culture medium. After equilibration to room temperature, the CellTiterGlo reagents were mixed and 25 µL/well were added to the cell plate. After 2 min mixing of the plate on an orbital shaker, the plate was incubated for 10 min at room temperature followed by luminescence reading in Sense. The cell viability was calculated compared to untreated control wells and the EC50 values were determined in XLfit (IDBS). […]

[4] = 495 (unit uncertain) as printed in sheet footnote
[5] = Table S2, virtual fragment screen hits, read-out: pIC50 (converted)
[6] = 99 (unit uncertain) as printed in sheet footnote

T1 sequence (O15527 whole entry): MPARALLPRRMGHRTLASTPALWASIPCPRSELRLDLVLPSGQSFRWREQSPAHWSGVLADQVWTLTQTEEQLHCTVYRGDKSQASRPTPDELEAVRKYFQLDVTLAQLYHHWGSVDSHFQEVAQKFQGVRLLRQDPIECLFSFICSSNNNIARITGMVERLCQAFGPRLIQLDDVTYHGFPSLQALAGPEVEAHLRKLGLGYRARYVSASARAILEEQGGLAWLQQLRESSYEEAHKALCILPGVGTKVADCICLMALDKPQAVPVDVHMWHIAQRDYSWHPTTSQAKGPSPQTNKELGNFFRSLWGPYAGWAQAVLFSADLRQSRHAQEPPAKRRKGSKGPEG

Structure (SMILES) | ∆Tm (K) ([1]; 99 μM) | ∆Tm (K) ([1]; 495 µM) | further results
Cc1ccc(CNC(=O)Nc2cnn(C)c2C(F)(F)F)c(C)c1 [ZINC000000241283] | 0.39 K | – | –
Cc1csc(NC(=O)c2ccc(N)cc2)n1 [ZINC000005740683] | – | 0.52 K | –
O=C(NCc1ccc2oc(=O)[nH]c2c1)c1cc(C2CC2)on1 [ZINC000025095824] | 0.10 K and 0.1 K | – | –
Cc1cnc(Nc2ncnc3ccccc23)s1 [ZINC000031949200] | – | -0.03 K | –
O=C(Cn1c(C(F)(F)F)nc2ccccc21)NCc1ccccc1 [ZINC000032814728] | 0.79 K | – | –
O=C(NCc1cnn(-c2ccccc2)c1)c1cc(C2CC2)no1 [ZINC000045518705] | -0.07 K | – | –
C[C](CNC(=O)c1cn2c(n1)CCC2)Oc1ccc(Cl)cc1 [ZINC000047544921] | 0.05 K | – | –
Cc1ccc(NC(=O)Nc2c[nH]nc2C)s1 [ZINC000075413056] | – | 0.35 K | –
C[C](CNC(=O)c1cn(-c2ccccc2)nn1)Oc1ccc(C)cc1 [ZINC000080662795] | -0.11 K | – | –
O=C(NCc1ccccc1O)c1ccc(F)cc1 [ZINC000082283111] | – | 0.67 K | –
CC(C)(NC(=O)NCc1ccco1)c1ccc(Br)cc1 [ZINC000088254610] | 0.27 K | – | –
Cc1n[nH]cc1CNC(=O)C1Cc2ccccc21 (stereo not shown) [ZINC000088452370] | – | 0.26 K | –
C[C](NC(=O)c1ccc(C)nc1)c1cnn(-c2ccc(F)cc2)c1C [ZINC000142711832] | -0.11 K | – | –
c1cnc2ccc(CNc3nnc4ccccn34)cc2c1 [ZINC000155922887] | inactivea | – | –
CCc1ccc(CC(=O)Nc2nnc(C3CC3)n2C)cc1 [ZINC000157183023] | Inactivea | – | –
Cc1csc(Nc2ncnc3sccc23)n1 [ZINC000163077816] | – | -0.51 K | –
Cc1n[nH]cc1CNC(=O)C(C)c1ccccc1 (stereo not shown) [ZINC000182379077] | – | 0.08 K | –

Structure (SMILES) | ∆Tm (K) ([1]; 99 μM) | ∆Tm (K) ([1]; 495 µM) | further results
COc1ccc(F)cc1CNC(=O)c1cn[nH]c1 [ZINC000188683358] | – | -0.01 K | –
C=Cc1ccc(C(=O)NCc2cn(-c3ccccc3)nc2C)cc1 [ZINC000192206237] | 0.83 K | – | –
COCc1csc(NCc2ccccc2)n1 [ZINC000196610182] | – | -0.06 K | –
CCCC1CCCC1C(=O)NCc1c[nH]nc1C (stereo not shown) [ZINC000294547394] | – | 0.18 K | –
Cn1ncc(NC(=O)N[C]2COc3ccc(Cl)cc32)c1C(F)F [ZINC000337657385] | -0.16 K | – | –
Cc1ccn2c(NC(=O)C3(Oc4ccc(Cl)cc4)CC3)nnc2c1 [ZINC000341519123] | 0.37 K | – | –
CC1CC1CNC(=O)C1CCc2cccnc21 (stereo not shown) [ZINC000341791847] | – | 0.38 K | –
C[C](CCc1ccccc1)C(=O)N1CC(c2ccccc2)C1 [ZINC000342133714] | 0.08 K | – | –
Cc1csc(NC(=O)N2CC(C)C(O)C2)n1 (stereo not shown) [ZINC000350512979] | – | 0.07 K | –
CN1C(=O)Cc2cc(Nc3ncnc4c(F)cccc34)ccc21 [ZINC000350560229] | -0.01 K | – | –
O=C(NC1CN(C(=O)c2ccc(Cl)s2)C1)c1ccc(Cl)o1 [ZINC000357905855] | 0.23 K | – | –
COc1ccc([C]2CCCCCN2C(=O)Nc2noc(C)c2C)cc1 [ZINC000455661485] | -0.14 K | – | –
C[C]C(=O)Nc1nnc2ccccn12 [ZINC000613462643] | 0.05 K | – | –
O=C(NCC1([C](O)c2ccccc2)CC1)c1ccc(Cl)cc1 [ZINC000700852234] | -0.27 K | – | –
CCc1ccc(C(=O)NC[C]2CS(=O)(=O)c3ccccc3O2)cc1 [ZINC001002782586] | -0.13 K | – | –
O=C(Nc1noc2c1CCCC2)C1CC12CCC2 (stereo not shown) [compound 1] | – | – | ∆Tm (K) [1, 4]: 2.8 K; ΔTm [1]: 2.8 K; OGG1 inhibition, dose-response (Figure2C) ([2]; Concentration (M) 9.67e-7): 3.85 and 6.91; OGG1 inhibition, dose-response (Figure2C) ([2]; Concentration (M) 0.000248): 16.25 and 9.26; OGG1 inhibition, dose-response (Figure2C) ([2]; Concentration (M) 0.000495): 25.93 and 22.47; inhibition at 99 µM ([2]; at 99 μM, read-out: percent inhibition of OGG1): < 50%; IC50 ([2]; listed as Fragment 1): too weak to determine an IC50 value; IC50 ([2]; read-out: IC50): > 99 µM
O=C(Cc1ccc(-n2ncc3c2CNCC3)cc1)Nc1noc2c1CCCC2 [compound 15] | – | – | EC50 [3]: 13.2 µM

More lines, main results first:

∆Tm (K) ([1]; 99 μM) | ∆Tm (K) ([1]; 495 µM) | Structure (SMILES) | further results
0.43 K | – | Cn1c(=O)n(C)c2cc(Nc3ncnc4ccccc34)ccc21 [ZINC000358521717] | –
-0.04 K | – | Cn1nc(Nc2ncnc3cc(F)c(F)cc23)cc1C1CC1 [ZINC000439491208] | –
-0.23 K | – | Cn1ncc2c(Nc3cccc(-c4cccs4)c3)ncnc21 [ZINC000445022399] | –
-0.92 K | – | O=C(NCc1nc(-c2ccccc2)no1)c1cn(-c2ccccc2)nn1 [ZINC000507023994] | –
– | -0.15 K | CC(=O)Nc1nc(-c2ccc(Cl)cc2)n[nH]1 [ZINC000517746346] | –
-0.38 K | – | COc1ccc2[nH]cc(CC(=O)Nc3nnc4cc(C)ccn34)c2c1 [ZINC000520908378] | –
0.17 K | – | COc1ccc(C2(CNC(=O)c3ccc(F)s3)CCC2)cc1 [ZINC000572161337] | –
0.65 K | – | O=C(NCC1(O)CN(C(=O)c2cccnn2)C1)c1ccc(Cl)cc1 [ZINC000584413720] | –
-0.19 K | – | O=C(NCc1ccn(-c2ccccc2)n1)c1cc(-c2ccccc2)no1 [ZINC000617287579] | –
– | 0.11 K | COCC(C)(O)C(=O)Nc1cnc2ccccn12 (stereo not shown) [ZINC000618358369] | –
– | 0.03 K | Cc1cc(=O)c(C(=O)NC2(C)CC2(C)C)c[nH]1 (stereo not shown) [ZINC000620078540] | –
0.48 K | – | Cc1ccc(NC(=O)N2CC(O)(c3ccc(Cl)cc3)C2)s1 [ZINC000633809751] | –
– | -0.08 K | Cc1cc(NC(=O)c2coc(C3CC3)n2)cs1 [ZINC000634423932] | –
– | 0.01 K | Cc1n[nH]cc1CNC(=O)NC1(C)CC1(C)C (stereo not shown) [ZINC000663691150] | –
-0.08 K | – | Cc1cccc2nc(C(=O)NCc3ccc(Br)o3)cn12 [ZINC000677630607] | –
– | 0.01 K | Cc1cc(CNC(=O)c2c(O)cccc2F)[nH]n1 [ZINC000681276767] | –
– | 0.52 K | Cc1conc1NC(=O)c1csc2cncn12 [ZINC000772563154] | –

∆Tm (K) ([1]; 99 μM) | ∆Tm (K) ([1]; 495 µM) | Structure (SMILES) | further results
-0.42 K | – | Cc1ccc(NC(=O)N2CC(O)(c3ccc(Cl)cc3)C2)s1 [ZINC000776423770] | –
– | -0.02 K | Cc1ccccc1CNC(=O)Nc1cnnn1C [ZINC000787791820] | –
– | 0.07 K | O=C(NCC1(O)CCC1)c1nc(Cl)cs1 [ZINC000789956517] | –
– | -0.03 K | Cc1conc1NC(=O)c1nc(Cl)cs1 [ZINC000789997344] | –
– | -0.05 K | Cn1ccnc1NC(=O)c1nc(Cl)cs1 [ZINC000851710058] | –
– | -0.03 K | Cc1nocc1NC(=O)Nc1ccnn1C(C)C [ZINC000866108350] | –
– | -0.15 K | CCC(C)(O)C(=O)Nc1nnc2n1CCCC2 (stereo not shown) [ZINC000935297684] | –
-0.03 K | – | O=S(=O)(Nc1ccc(Cl)cc1F)N1CCc2ccccc2C1 [ZINC000990255105] | –
-0.07 K | – | Cc1ccc(C(=O)NCc2nc(-c3cccnc3)no2)cc1C [ZINC001046413262] | –
0.00 K and 0 K | – | CCN(Cc1ccccc1)S(=O)(=O)NC1Cc2ccccc2C1 [ZINC001146929060] | –
0.15 K | – | Cc1cscc1NC(=O)NCc1cccc(-n2cncn2)c1 [ZINC001624168456] | –
– | 1.6 K and > 1 K | CC1(C)CC1(C)NC(=O)c1cc2cccn2cn1 (stereo not shown) [compound 2] | ∆Tm (K) [1, 4]: 1.6 K; IC50 [2, 5]: > 100 µM
– | 0.6 K | Cc1ccc(CNC(=O)c2ccc(F)nc2)cc1 [compound 3] | ∆Tm (K) [1, 4]: 0.6 K; IC50 [2, 5]: > 100 µM
– | 0.5 K | CC1(C)CC(NC(=O)c2csc3cncn23)C1 [compound 4] | ∆Tm (K) [1, 4]: 0.5 K; IC50 [2, 5]: > 100 µM
4.1 ± 0.7 K | – | O=C(Nc1noc2c1CCCC2)[C@H]1Cc2ccccc21 [compound 5] | ∆Tm (K) [1, 6]: 4.1 ± 0.7 K; ΔTm [1]: 4.1 K; IC50 ([2]; read-out: IC50): 58 µM
1.1 ± 0.5 K | – | O=C(Cc1c(F)cccc1F)Nc1noc2c1CCCC2 [compound 6] | ∆Tm (K) [1, 6]: 1.1 ± 0.5 K; IC50 ([2]; Table 1, mean ± SD, at least three independent replicates, read-out: pIC50 (converted)): 36.3 µM
